Measurements published in PMC10510108, “Studies Pertaining to the Emerging Cannabinoid Hexahydrocannabinol (HHC)” (ACS Chemical Biology, 2023).
Entries after “also recorded” stand apart in the source; their conditions may differ. Where two headings read alike, the source gives them in different places.

Key:
[1] = target: T1, human CB1 cannabinoid receptor (Homo sapiens, UniProt P21554); test: biochemical; format: binding; conditions: for nH (Hill coefficient) / Top (% inhibition of control specific binding): SI; for nH (Hill coefficient): competition curve fit; for Top (% inhibition of control specific binding): four parameter curve fit
T1 construct: host or cells: Chem-1 cells
T1 sequence (P21554 whole entry): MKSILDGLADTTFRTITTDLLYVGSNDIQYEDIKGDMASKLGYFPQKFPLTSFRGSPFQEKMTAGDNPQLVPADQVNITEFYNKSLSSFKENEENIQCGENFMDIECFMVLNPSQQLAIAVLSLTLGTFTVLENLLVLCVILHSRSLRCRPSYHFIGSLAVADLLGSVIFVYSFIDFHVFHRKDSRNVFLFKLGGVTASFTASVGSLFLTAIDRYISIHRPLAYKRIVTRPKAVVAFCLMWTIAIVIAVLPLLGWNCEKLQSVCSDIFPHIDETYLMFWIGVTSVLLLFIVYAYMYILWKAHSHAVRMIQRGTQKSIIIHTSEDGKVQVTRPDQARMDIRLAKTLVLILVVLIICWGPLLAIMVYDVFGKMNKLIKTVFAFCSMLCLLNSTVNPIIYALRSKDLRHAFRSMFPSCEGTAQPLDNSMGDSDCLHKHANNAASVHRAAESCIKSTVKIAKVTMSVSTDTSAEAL

[2] = target: T2, human CB2 cannabinoid receptor (Homo sapiens, UniProt P34972); test: biochemical; format: binding; conditions: for nH (Hill coefficient): competition curve fit; for Top (% inhibition of control specific binding): four parameter curve fit
T2 construct: host or cells: CHO cells
T2 sequence (P34972 whole entry): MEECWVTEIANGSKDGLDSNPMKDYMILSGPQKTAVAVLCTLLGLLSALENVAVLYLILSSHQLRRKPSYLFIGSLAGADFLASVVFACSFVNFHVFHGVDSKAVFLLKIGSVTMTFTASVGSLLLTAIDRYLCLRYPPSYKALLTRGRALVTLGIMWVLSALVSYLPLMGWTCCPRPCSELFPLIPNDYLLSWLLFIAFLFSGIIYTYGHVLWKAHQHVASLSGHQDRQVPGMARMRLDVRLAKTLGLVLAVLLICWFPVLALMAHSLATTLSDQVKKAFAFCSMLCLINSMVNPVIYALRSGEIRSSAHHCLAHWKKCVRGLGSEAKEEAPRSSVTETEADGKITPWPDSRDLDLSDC

[3] = target: T3, human CB1 receptor (Homo sapiens, UniProt P21554); test: cell-based; conditions: for EC50: cAMP HTRF, transfected CHO cells, two replicate experiments, error = standard deviation
T3 construct: host or cells: CHO cells
T3 sequence (P21554 whole entry): as the sequence (P21554 whole entry) above

[4] = target: T4, human CB2 receptor (Homo sapiens, UniProt P34972); test: cell-based; conditions: for EC50: cAMP HTRF, transfected CHO cells, two replicate experiments, error = standard deviation
T4 construct: host or cells: CHO cells
T4 sequence (P34972 whole entry): as the sequence (P34972 whole entry) above

[5] = [3H]WIN 55212-2 displacement, transfected CHO cell lysate, two replicate experiments, error = standard deviation, read-out: Ki (CB2)

Row | Compound | % inhibition of control specific binding ([1]; Log[M] –5.48, 1st replicate) [%] | % inhibition of control specific binding ([1]; Log[M] –5.48, 2nd replicate) [%] | % inhibition of control specific binding ([1]; Log[M] –6.43, 1st replicate) [%] | % inhibition of control specific binding ([1]; Log[M] –6.43, 2nd replicate) [%] | % inhibition of control specific binding ([1]; Log[M] –6.91, 1st replicate) [%] | % inhibition of control specific binding ([1]; Log[M] –6.91, 2nd replicate) [%] | % inhibition of control specific binding ([1]; Log[M] –7.39, 1st replicate) | % inhibition of control specific binding ([2]; Log[M] –5.48, 1st replicate) [%] | % inhibition of control specific binding ([2]; Log[M] –5.48, 2nd replicate) [%] | % inhibition of control specific binding ([2]; Log[M] –6.43, 1st replicate) [%] | % inhibition of control specific binding ([2]; Log[M] –6.43, 2nd replicate) [%] | % inhibition of control specific binding ([2]; Log[M] –6.91, 1st replicate) [%] | % inhibition of control specific binding ([2]; Log[M] –6.91, 2nd replicate) [%] | % inhibition of control specific binding ([2]; Log[M] –7.39, 1st replicate) [%] | % inhibition of control specific binding ([2]; Log[M] –7.39, 2nd replicate) [%] | % inhibition of control specific binding ([2]; Log[M] –7.86, 1st replicate) [%] | % inhibition of control specific binding ([2]; Log[M] –7.86, 2nd replicate) [%] | nH (Hill coefficient) ([2]; SI) | Top (% inhibition of control specific binding) ([2]; SI) | agonist character at CB2 ([4]; functional assay) | further results
1 | CCCCCc1cc(O)c2c(c1)OC(C)(C)[C@@H]1CC[C@@H](C)C[C@@H]21 [4a, (9R)-HHC] | 112.10 | 113.60 | 95.20 | 100.00 | 82.50 | 83.30 | 50.10% | 98.00 | 97.20 | 96.90 | 93.60 | 86.90 | 84.70 | 64.90 | 67.50 | 47.90 | 41.40 | 1.1 | 99 | partial agonists; also recorded: partial CB1 and CB2 receptor agonist activity | Ki [1]: 15 nM; % inhibition of control specific binding ([1]; Log[M] –7.39, 2nd replicate): 52.90%; % inhibition of control specific binding ([1]; Log[M] –7.86, 1st replicate): 27.40%; % inhibition of control specific binding ([1]; Log[M] –7.86, 2nd replicate): 29.00%; nH (Hill coefficient) [1]: 1.1; Top (% inhibition of control specific binding) [1]: 111; selectivity for CB2 (radioligand binding) [2]: 1.2 x; Ki [2, 5]: 13 nM; selectivity for CB1 (functional assay) [3]: 1.8 x; EC50 [3]: 3.4 nM; agonist character at CB1 ([3]; functional assay): partial agonists; also recorded: partial CB1 and CB2 receptor agonist activity; increase in potency compared to 4b, CB1 ([3]; functional assay): 17 fold; selectivity for CB2 (functional activity) [4]: 0.55 x; EC50 [4]: 6.2 nM; increase in potency compared to 4b, CB2 ([4]; functional assay): 9 fold
2 | CCCCCc1cc(O)c2c(c1)OC(C)(C)[C@@H]1CC[C@H](C)C[C@@H]21 [4b, (9S)-HHC] | 88.80 | 95.80 | 35.70 | 35.70 | 8.70 | 5.50 | –4.50% | 88.30 | 88.00 | 62.60 | 61.40 | 41.60 | 41.40 | 15.80 | 16.00 | 4.40 | 6.70 | 0.7 | 102 | partial agonists; also recorded: partial CB1 and CB2 receptor agonist activity | % inhibition of control specific binding ([1]; Log[M] –7.39, 2nd replicate): 0.20%; % inhibition of control specific binding ([1]; Log[M] –7.86, 1st replicate): –9.00%; % inhibition of control specific binding ([1]; Log[M] –7.86, 2nd replicate): –6.10%; nH (Hill coefficient) [1]: 1.1; Top (% inhibition of control specific binding) [1]: 106; Ki ([1]; [3H]CP 55940 displacement, transfected Chem-1 cell lysate, two replicate experiments, error = standard deviation, read-out: Ki (CB1)): 176 nM; Ki ([2]; SI, curve fitted to mean replicate values, Cheng Prusoff, read-out: Ki): 110 nM; Ki [2, 5]: 105 nM; selectivity for CB2 (radioligand binding) ([2]; from Ki at CB1 and CB2): 1.7 x; selectivity for CB1 (functional assay) ([3]; CB1 versus CB2, from EC50): no significant selectivity; EC50 [3]: 57 nM; agonist character at CB1 ([3]; functional assay): partial agonists; also recorded: partial CB1 and CB2 receptor agonist activity; EC50 [4]: 56 nM; selectivity for CB2 (functional activity) ([4]; from EC50 at CB1 and CB2): 1.0 x
3 | CCCCCc1cc(O)c2c(c1)OC(C)(C)[C@@H]1CCC(C)=C[C@@H]21 [compound 1, Δ^9-trans-tetrahydrocannabinol, reference compound] | – | – | – | – | – | – | – | 97.00 | 96.20 | 98.10 | 98.20 | 88.60 | 89.90 | 74.30 | 67.60 | 50.30 | 51.20 | 1.0 | 100 | partial agonists; also recorded: partial CB1 and CB2 receptor agonist activity | –
